In article PMC8414802, “Hair Cell Generation in Cochlear Culture Models Mediated by Novel γ-Secretase Inhibitors” (Frontiers in Cell and Developmental Biology, 2021):
Values joined by “and” are separate entries in the source; they are usually repeats but may differ in a detail not shown here. Equal entries are not always repeated.

What was measured:
[1] = Inner ear pharmacokinetics after transtympanic administration (perilymph, plasma; LC-MS/MS); format: in vivo, guinea pig
Protocol: Female albino Hartley guinea pigs, 250 g, from Charles River (France), housed in macrolon cages (2/cage; Innocage Rat Static-Innovive, Paris) with filter air, were maintained at 22 ± 2°C on a 12-h light cycle with standard A04C (UAR) diet and water “ad libitum.” Lgr5-GFP mice containing an EGFP-IRES-CreERT2 knock-in allele at the Lgr5 locus were obtained from the Jackson Labs (Stock 008875, C57BL/6J/RccHsd background). Atoh1-nGFP transgenic mice (C57Bl/6J background) were from Jane Johnson ([Lumpkin et al., 2003]). Wistar rats were obtained from Charles River.
γ-secretase inhibitors pharmacokinetic studies tested CPD3, CPD8 (Eli Lilly) or LY411575 (Stemcell Technologies) each formulated at 3.4 mg/ml in the following vehicles, 10% Poloxamer 338 (Sigma), 20% Poloxamer 338, 70% PEG400 (Sigma) or 1% hyaluronic acid (HA-700; Lifecore, Chaska, MN, United States) all prepared with PBS (pH 6.2). A single 70 μl injection of the formulated compound (total dose, 870 μg/kg) was delivered to the middle ear space of isoflurane-anesthetized guinea pigs by transtympanic administration. Perilymph from treated animals (perilymph volumes, >2 μl) was collected at time points up to 48 h post-administration (CILcare, Montpellier, France). Briefly, concentrations of each compound in perilymph and plasma, as well as controls prepared in artificial perilymph, were measured by LC-MS/MS on an AB Sciex, API 4000 mass spectrometer using an Onyx C18 5 μm 50^∗2.0 mm separation column (Oroxcell, Romainville, France).
To verify this, in vivo compound concentrations were measured in perilymph of guinea pigs after intratympanic delivery of GSIs into the middle ear. Initially, four vehicle formulations, with different physical properties, were tested, poloxamer 338 (POX; at 10% or 20%), hyaluronic acid (HA), or polyethylene glycol 400 (PEG). For this comparison only one GSI was prepared in each formulation (CPD3, 3.4 mg/ml) and a single dose was injected into the middle ear. Perilymph and plasma were sampled for 48 h (Figure 1D). […] Next, using only 10% POX as vehicle, inner ear adsorption was compared between CPD3, CPD8, and LY411575 by transtympanic injections (Figure 1D, inset). […] Each compound achieved levels several folds above their respective IC50s. The mean maximal perilymph concentration of CPD3 at 0.5 h post-dosing was 85,489 ng/ml (183 μM), then declined at 1 h to 12,928 ng/ml (27.7 μM), and at 6 h to 12,652 ng/ml (27.1 μM). GSIs in plasma samples were not detected (data not shown).

[2] = system: hair cell genes Atoh1, Pou4f3, Myo7a in OC explants; experiment: Hair cell gene expression in organ of Corti explants (RT-PCR); format: cell-based, mouse; settings: 4 days, vs DMSO
Protocol: OC explants were isolated from postnatal day 2 (P2) Wistar rats, P0-P2 mice (Lgr5-GFP or Atoh1-nGFP mice). Dissection of the cochlea under a stereomicroscope (Nikon SMZ800, Japan) allowed OC separation from stria vascularis and modiolus, and the sensory epithelium was plated with hair cells facing up on Cell-Tak (Corning, United States)-coated transwell-clear inserts (6-well format, 0.4 μm pore, Corning, United States). Dissection medium was exchanged for 1.5 ml full otic medium supplemented with 10% FBS (Invitrogen) and 0.01% Ampicillin (Sigma), added under the insert membrane, maintaining the OC under a thin film of medium during culture at 37°C. 5-ethyl-2′-deoxyuridine (EdU, 5 μM, Life Technologies) was added directly in the medium when indicated.
Concentrations of small molecule GSIs {LY411575, CPD3, CPD8, DAPT (N-[N-(3,5-Difluorophenacetyl)-L-alanyl]-S-phenylglycine t-butyl ester; Sigma)} were prepared in DMSO and are indicated in Figure Legends and Results. DMSO included as Control. Treatment groups were assigned randomly.
Cells or tissue were lysed using RLT Lysis Buffer (Qiagen) and high purity RNA was prepared on the MagNA Pure instrument using MagNA Pure 96 Cellular RNA LV Kit (Roche). Reagents from Thermo Fisher were used for cDNA synthesis by reverse transcription using random hexamers. Resulting cDNA was RNAse H treated and amplified by TaqMan GEX mastermix and PCR primers and probes for human ATOH1 (Hs00944192_s1) and TBP (Hs00427620_m1), mouse Tbp (Mm00446971_m1), Atoh1 (Mm00476035_s1), Hes5 (Mm00439311_g1), Pouf4s (Mm04213795_s1), and Myo7a (Mm01274015_m1) on the Applied Biosystems QuantStudio 7 Flex Real-Time PCR System. Normalized to Tbp, relative gene expression fold-change was quantified and compared between experimental and control conditions by ΔΔCt calculation.
FIGURE 2 GSI-mediated induction of hair cell gene expression and de novo generation of hair cells in the neonatal cochlear sensory epithelium. (A) Gene expression changes of Atoh1, Pou4f3, and Myo7a in response to Notch pathway inhibition by CPD3 (solid lines, triangles) and CPD8 (dashed lines, open square) in otic spheres. Gene expression is reported as fold-change relative to carrier control-treated (DMSO, 0.05%). (n = 9–12). […] (B) Gene expression analysis for the hair cell genes Atoh-1, Myo7a, and Pou4f3. DMSO control n = 13, CPD3 n = 12, LY411575 n = 9, DAPT n = 6 from 2–4 independent experiments. OC explants were cultured for 4 days with/without GSI prior to lysis and analysis. One-way ANOVA with Dunnett’s multiple comparison test, each condition compared to DMSO control. (*p < 0.05, **p < 0.005, ***p < 0.001). (C) Cell counts of Atoh1 positive HCs (OHC left, IHC right) in the mouse cochlear sensory epithelium in the mid-apex region after 7 days in culture with different γ-secretase inhibitors. One-way ANOVA Dunnett’s multiple comparison test, each condition compared to DMSO control. (*p < 0.05; n = 3–5 independent experiments). (D) Quantification of Pou4f3 positive HCs (OHC left, IHC right) in the cochlear sensory epithelium from P2 rats in the apical domain after 8 days in culture with different γ-secretase inhibitors. One-way ANOVA with Dunnett’s multiple comparison test, each condition compared to DMSO control (*p < 0.05, n = 3). Representative immunohistological images of the apical domain after 8 days incubation (inset). scale bar = 20 μm. (E) Quantification of Pou4f3 positive OHCs in the apex, middle and basal domain of organ of Corti explants from rats after 4 days of CPD3 treatment compared to DMSO (*p < 0.05, unpaired t-test) n = 4–6 explants from 2 independent experiments.

[3] = female, Hartley, guinea pig, perilymph, other: transtympanic (middle ear injection), 870 μg/kg, 10% POX vehicle, transtympanic

Time at which mean maximal perilymph concentration was reached ([1]; 10% POX and 20% POX formulations, post-dosing)	Mean maximal perilymph concentration at 0.5 h post-dosing ([1]; 10% POX vehicle, transtympanic)	Perilymph concentrations quantifiable ([1]; 10% POX, sampled at 0.5, 1 and 6 h post-dosing)	concentration at 1 h [1, 3]	concentration at 6 h [1, 3]	Compound	concentration at 48 h ([1]; female, Hartley, guinea pig, perilymph, other: transtympanic (middle ear injection), 870 μg/kg, single transtympanic dose 3.4 mg/ml, 70 μl, span over the vehicle formulations (10% POX, 20% POX, HA, PEG400))	Atoh1 expression ([2]; 1 μM)	Myo7a expression ([2]; 1 μM)	Pou4f3 expression ([2]; 1 μM)	Atoh1 expression ([2]; 5 μM)	Myo7a expression ([2]; 5 μM)	Pou4f3 expression ([2]; 5 μM)
0.5 h	85,489 ng/ml and 183 μM	quantifiable at all time points	12900 ng/mL and 27.7 µM	12700 ng/mL and 27.1 µM	COc1ccc2c(c1)N1CCC(C)(C)C1=CC(=O)[C@H]2NC(=O)[C@H](C)NC(=O)CCC(F)(F)F [CPD3]	485 ng/mL to 1000 ng/mL and 1 µM to 2.1 µM	3.7 ± 0.54 fold	1.73 ± 0.33 fold	2.04 ± 0.35 fold	–	–	–
–	–	–	–	–	C[C@H](NC(=O)[C@@H](O)c1cc(F)cc(F)c1)C(=O)N[C@@H]1C(=O)N(C)c2ccccc2-c2ccccc21 [LY411575]	–	–	–	–	4.34 ± 0.82 fold	1.42 ± 0.31 fold	1.46 ± 0.26 fold
